Measurements taken from ChEMBL document CHEMBL2062409, “Conformationally-restricted cyclic sulfones as potent and selective mTOR kinase inhibitors” (Bioorg Med Chem Lett, 2012).

Tests used:
[1] = biological target: T1, Serine/threonine-protein kinase mTOR (Homo sapiens, UniProt P42345); assay: Inhibition of mTOR
[2] = biological target: T1, Serine/threonine-protein kinase mTOR; assay: Inhibition of mTOR-mediated AKT phosphorylation at Ser473 by cell based assay
[3] = biological target: T2, Phosphatidylinositol 4,5-bisphosphate 3-kinase catalytic subunit alpha isoform (Homo sapiens, UniProt P42336); assay: Inhibition of PI3Kalpha
T2 sequence (P42336 whole entry, canonical isoform): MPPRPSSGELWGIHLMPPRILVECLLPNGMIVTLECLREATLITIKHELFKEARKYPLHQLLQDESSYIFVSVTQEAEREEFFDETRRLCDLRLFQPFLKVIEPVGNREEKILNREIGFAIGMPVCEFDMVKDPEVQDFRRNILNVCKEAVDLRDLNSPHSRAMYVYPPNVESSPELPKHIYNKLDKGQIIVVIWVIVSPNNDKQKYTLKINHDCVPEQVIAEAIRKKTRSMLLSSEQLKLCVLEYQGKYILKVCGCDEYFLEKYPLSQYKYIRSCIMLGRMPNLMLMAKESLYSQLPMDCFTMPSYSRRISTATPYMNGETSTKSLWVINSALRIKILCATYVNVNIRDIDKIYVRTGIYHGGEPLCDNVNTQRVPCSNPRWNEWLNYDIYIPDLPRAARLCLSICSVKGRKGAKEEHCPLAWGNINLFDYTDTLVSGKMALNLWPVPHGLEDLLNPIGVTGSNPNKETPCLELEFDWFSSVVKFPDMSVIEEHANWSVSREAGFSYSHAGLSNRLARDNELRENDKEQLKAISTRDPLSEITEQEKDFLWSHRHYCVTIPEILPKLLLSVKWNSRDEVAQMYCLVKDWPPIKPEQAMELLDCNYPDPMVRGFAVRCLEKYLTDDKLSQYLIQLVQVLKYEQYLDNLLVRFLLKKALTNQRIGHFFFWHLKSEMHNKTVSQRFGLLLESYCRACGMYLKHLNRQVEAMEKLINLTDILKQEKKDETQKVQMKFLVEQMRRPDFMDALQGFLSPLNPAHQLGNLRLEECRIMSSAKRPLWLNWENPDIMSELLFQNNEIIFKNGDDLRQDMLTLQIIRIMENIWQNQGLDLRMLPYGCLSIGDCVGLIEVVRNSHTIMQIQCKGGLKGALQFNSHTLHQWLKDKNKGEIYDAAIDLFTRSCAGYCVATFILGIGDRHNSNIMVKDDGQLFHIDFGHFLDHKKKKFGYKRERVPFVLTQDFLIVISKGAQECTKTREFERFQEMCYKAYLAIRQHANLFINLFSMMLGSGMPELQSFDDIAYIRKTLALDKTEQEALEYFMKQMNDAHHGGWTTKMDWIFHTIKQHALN

[4] = Clearance in human liver microsomes assessed per mg of protein; assay type: ADME, Microsome; conditions: read-out: CLH
[5] = Clearance in human hepatocytes assessed per million cells; assay type: ADME, cell-based, Hepatocyte; conditions: read-out: CLH
[6] = biological target: T2, Phosphatidylinositol 4,5-bisphosphate 3-kinase catalytic subunit alpha isoform; assay: Inhibition of PI3Kalpha at 100 nM
Homo sapiens = species on record: Homo sapiens; assay: Selectivity ratio of Ki for PI3Kalpha to Ki for mTOR
CYP3A4 = CYP3A4 (Homo sapiens, UniProt P08684); assay: Inhibition of CYP3A4 at 3 uM; assay type: ADME
Chain of CYP3A4 (P08684 whole entry): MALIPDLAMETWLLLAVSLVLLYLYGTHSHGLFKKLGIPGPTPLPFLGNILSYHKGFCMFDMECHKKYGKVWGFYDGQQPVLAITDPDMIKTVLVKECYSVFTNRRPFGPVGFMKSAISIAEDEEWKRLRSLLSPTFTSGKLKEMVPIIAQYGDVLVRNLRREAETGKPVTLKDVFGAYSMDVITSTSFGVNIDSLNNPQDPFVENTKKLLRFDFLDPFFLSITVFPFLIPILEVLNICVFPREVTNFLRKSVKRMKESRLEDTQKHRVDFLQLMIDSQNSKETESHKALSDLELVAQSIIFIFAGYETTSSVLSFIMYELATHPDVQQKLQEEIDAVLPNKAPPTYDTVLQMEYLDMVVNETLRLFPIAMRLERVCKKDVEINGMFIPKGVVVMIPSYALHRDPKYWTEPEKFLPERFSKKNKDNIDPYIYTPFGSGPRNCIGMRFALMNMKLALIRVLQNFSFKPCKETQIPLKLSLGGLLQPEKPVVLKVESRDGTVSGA

[7] = Drug excretion in rat; assay type: ADME, organism-based; conditions: in vivo, read-out: Drug excretion
[8] = Clearance in rat; assay type: ADME, organism-based; conditions: in vivo
[9] = Half life in rat; assay type: ADME, organism-based; conditions: in vivo
Salmonella typhimurium = assay: Genotoxicity in Salmonella typhimurium; assay type: toxicity, organism-based; conditions: salmonella enterica subsp. enterica serovar typhimurium
CYP2C9 = CYP2C9 (Homo sapiens, UniProt P11712); assay: Inhibition of CYP2C9 at 3 uM; assay type: ADME
Chain of CYP2C9 (P11712 whole entry): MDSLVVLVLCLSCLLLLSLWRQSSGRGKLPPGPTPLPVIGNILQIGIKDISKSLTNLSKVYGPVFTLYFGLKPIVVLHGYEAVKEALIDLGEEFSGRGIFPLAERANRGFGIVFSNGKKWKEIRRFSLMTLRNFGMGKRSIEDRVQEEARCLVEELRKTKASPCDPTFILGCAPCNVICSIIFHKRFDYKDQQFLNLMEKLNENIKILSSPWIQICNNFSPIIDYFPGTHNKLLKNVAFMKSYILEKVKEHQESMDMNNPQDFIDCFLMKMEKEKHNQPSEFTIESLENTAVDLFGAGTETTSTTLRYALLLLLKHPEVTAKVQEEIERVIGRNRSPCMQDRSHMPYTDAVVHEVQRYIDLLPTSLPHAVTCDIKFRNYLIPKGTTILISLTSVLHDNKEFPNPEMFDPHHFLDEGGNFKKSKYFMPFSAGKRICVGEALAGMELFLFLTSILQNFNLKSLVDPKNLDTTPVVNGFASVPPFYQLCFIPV

[10] = biological target: T1, Serine/threonine-protein kinase mTOR; assay: Inhibition of mTOR-mediated ribosomal protein S6 kinase phosphorylation by cell based assay
CYP1A2 = biological target: T3, CYP1A2 (Homo sapiens, UniProt P05177); assay: Inhibition of CYP1A2 at 3 uM; assay type: ADME
T3 sequence (P05177 whole entry): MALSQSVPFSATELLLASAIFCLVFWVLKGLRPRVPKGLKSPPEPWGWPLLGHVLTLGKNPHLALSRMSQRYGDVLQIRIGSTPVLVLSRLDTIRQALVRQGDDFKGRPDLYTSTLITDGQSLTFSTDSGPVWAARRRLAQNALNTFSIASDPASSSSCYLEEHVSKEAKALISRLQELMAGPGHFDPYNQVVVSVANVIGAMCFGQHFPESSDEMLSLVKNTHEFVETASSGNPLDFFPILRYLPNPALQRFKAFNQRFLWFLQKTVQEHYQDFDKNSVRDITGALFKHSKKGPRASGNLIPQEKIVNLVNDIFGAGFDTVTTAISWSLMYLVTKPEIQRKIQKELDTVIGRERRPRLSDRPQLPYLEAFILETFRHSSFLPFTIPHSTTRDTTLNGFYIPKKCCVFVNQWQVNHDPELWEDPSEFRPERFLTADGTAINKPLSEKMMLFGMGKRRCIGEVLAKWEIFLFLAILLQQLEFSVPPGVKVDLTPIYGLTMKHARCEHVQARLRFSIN

[11] = Oral bioavailability in rat; assay type: ADME, organism-based; conditions: in vivo
CYP2D6 = CYP2D6 (Homo sapiens, UniProt P10635); assay: Inhibition of CYP2D6 at 3 uM; assay type: ADME
Chain of CYP2D6 (P10635 whole entry): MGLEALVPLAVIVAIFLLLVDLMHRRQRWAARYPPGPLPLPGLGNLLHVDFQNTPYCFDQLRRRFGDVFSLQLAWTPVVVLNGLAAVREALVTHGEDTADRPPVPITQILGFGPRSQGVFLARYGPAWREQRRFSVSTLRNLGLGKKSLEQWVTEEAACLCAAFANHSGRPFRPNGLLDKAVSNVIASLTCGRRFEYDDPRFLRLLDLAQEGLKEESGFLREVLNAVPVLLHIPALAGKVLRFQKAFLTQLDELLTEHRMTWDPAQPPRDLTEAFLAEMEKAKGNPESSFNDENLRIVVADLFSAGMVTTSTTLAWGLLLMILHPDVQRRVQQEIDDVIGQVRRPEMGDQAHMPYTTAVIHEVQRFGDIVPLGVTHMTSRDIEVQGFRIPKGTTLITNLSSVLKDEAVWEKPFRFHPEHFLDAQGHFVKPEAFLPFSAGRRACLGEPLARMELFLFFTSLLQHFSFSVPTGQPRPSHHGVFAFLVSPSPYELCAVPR

SMILES | Ki [1] [µM] | IC50 [2] [µM] | Ki [3] [µM] | microsomal CLint [4] [µL/min/mg] | hepatocyte CLint [5] [µL/min/1e6 cells] | inhibition [6] [%] | also measured
CCNC(=O)Nc1ccc(-c2nc3c(c(N4CCOC[C@H]4C)n2)CS(=O)(=O)CC3)cc1 | 0.052 | – | > 4.55 | – | – | – | –
CCNC(=O)Nc1ccc(-c2nc3c(c(N4CCOC[C@@H]4C)n2)S(=O)(=O)CCC3)cc1 | 0.05 | – | > 4.55 | 58 | 28 | – | –
CCNC(=O)Nc1ccc(-c2nc3c(c(N4CCOC[C@@H]4C)n2)CS(=O)(=O)CC3)cc1 | 0.008 | 0.048 | > 4.55 | 8.7 | < 2 | – | inhibition at 3 µM (CYP3A4): ≤ 25%; dose excreted [7]: 5.5%; clearance [8]: 3.97 L/h/kg; half-life [9]: 1.05 h; Activity (Salmonella typhimurium): Non-toxic; inhibition at 3 µM (CYP2C9): ≤ 25%; Ratio Ki (Homo sapiens): > 500; IC50 [10]: 0.006 µM; inhibition at 3 µM (CYP1A2): ≤ 25%; bioavailability [11]: 30%; inhibition at 3 µM (CYP2D6): ≤ 25%
CCNC(=O)Nc1ccc(-c2nc3c(c(N4CCOC[C@H]4C)n2)S(=O)(=O)CC3)cc1 | 0.12 | – | – | 25 | 11 | 7 | –

More lines, main results first:

Ki [1] [µM] | IC50 [2] [µM] | Ki [3] [µM] | microsomal CLint [4] [µL/min/mg] | hepatocyte CLint [5] [µL/min/1e6 cells] | inhibition [6] [%] | SMILES | also measured
0.005 | 0.055 | 3 | – | – | – | CCNC(=O)Nc1ccc(-c2nc3c(c(N4C[C@H]5CC[C@@H](C4)O5)n2)CS(=O)(=O)CC3)cc1 | –
0.007 | 0.084 | – | – | – | 18 | CCNC(=O)Nc1ccc(-c2nc3c(c(N4C[C@H]5CC[C@@H](C4)O5)n2)CS(=O)(=O)C3)cc1 | –
0.025 | – | 0.514 | < 8 | < 2 | – | CCNC(=O)Nc1ccc(-c2nc3c(c(N4CCOCC4)n2)CS(=O)(=O)C3)cc1 | Ratio Ki (Homo sapiens): 20
0.062 | 1.29 | – | – | – | 3 | CCNC(=O)Nc1ccc(-c2nc3c(c(N4C[C@@H]5C[C@H]4CO5)n2)CS(=O)(=O)C3)cc1 | –
0.05 | – | > 4.55 | < 8 | < 2 | – | CCNC(=O)Nc1ccc(-c2nc3c(c(N4CCOCC4)n2)CS(=O)(=O)CC3)cc1 | –
